# US20030134859A1 (SANKYO COMPANY, LIMITED, priority 2000, published 2003)
# Test system: ABCA1 mRNA
# Assay: Quantitative analysis of ABCA1 mRNA (TaqMan PCR) in RAW264.7 cells
# Format: cell-based, mouse
# Conditions: 100 nM test compound, 24 hr, normalised to β-actin, DMSO = 100
# Protocol: The mouse monocyte/macrophage cell line, RAW264.7 (ATCC TIB71) was purchased from Dainippon Pharmaceutical Co., Ltd. As the medium, the Dulbecco's modified Eagle's medium (DMEM medium; GIBCO, Cat. No. 11995-040) containing bovine fetal serum (the final concentration: 10% (v/v), MOREGATE, lot No. 474030), penicillin G (the final concentration: 50 units/mL, GIBCO) and streptomycin (the final concentration: 20 μg/mL, GIBCO) was used.
# The culture of RAW264.7 cells was carried out in a CO2 incubator (37° C., 95% R.H., 5% of CO2).
# A 2 ml volume of RAW264.7 cells suspension (1×10^6 cells/mL) was plated in each well of a 6-well plate (2×10^6 cells/well) and the cells were incubated for 2 hr in a CO2 incubator. The test compounds dissolved in DMSO were diluted with DMEM medium by 20 times, and were added to the wells at a volume of 4 μL/well (final concentration of the test compound: 100 nM). As the control, the DMSO solution was diluted with the DMEM medium by 20 times, and was added to the wells at the volume of 4 μL/well. After the cells were cultured in a CO2 incubator for 24 hr, the medium was removed and the total RNA was purified by using an RNeasy Mini Kit (Qiagen), according to the protocol attached. The concentration of the RNA in the samples obtained was calculated from absorbance at 260 nm (A260=1=40 μg/ml). Six (6) μg of total RNA were diluted with RNAase-free water so as to be 22.6 μL, which was heated at 65° C. for 10 min, and then was cooled on ice. The RNA in the solution was used as the template, and the cDNA was synthesized by using a First-strand cDNA Synthesis Kit (Amersham Pharmacia Biotech). In this reaction, a solution was prepared having the following composition and was reacted at 37° C. for 1 hr.
# After the reaction, 3 μL of soution were collected from each of the reaction mixtures of the test compound-treated cell samples and that of the control cell samples. The mixed solution was used as the standard solution. The standard solution and each reaction solution were purified with a Chroma Spin-100+DEPC-H2O Column according to the protocol attached, and they were used as the template for TaqMan PCR (Template). In order to draw the calibration curve, the standard solution was diluted by every 5 times for 5 steps and each solution was used for TaqMan PCR. TaqMan PCR was carried out in ABCA1 and β-actin. As Primers for use in the TaqMan PCR, 4 oligonucleotides (abca1 forward (S3), abca1 reverse (AS3), β-actin forward (S4) and β-actin reverse (AS4)) were designed which are shown in sequences No. 5 to 8 in the sequence table described later. The synthesis and purification of these 4 oligomers was ordered from Amersham Pharmacia Biotech Co.
# As FAM-TAMRA labelled TaqMan Probe, 2 kinds of oligonucleotides (abca1 (p1) and β-actin (p2)) were designed and were ordered from Applied Biosystems Co. to synthesize and purify.
# The following reaction mixture of ABCA1 or β-actin was divided into 2 wells of a MicroAmp Optical 96-well Reaction Plate (Applied Biosystem Co.). TaqMan Universal PCR Master Mix was purchased from Applied Biosystem Co.
# The plate was covered with a MicroAmp Optical Cap (Applied Biosystems Co.), and TaqMan PCR was carried out by using an ABI PRISM 7,700 Sequence Detection System (Applied Biosystem Co.) under the following conditions:
# An analysis was made according to the procedures described in the manual of Sequence Detection Software (Applied Biosystem Co.) and the increased rate of ABCA1 mRNA due to the test compound was calculated based on the following equation.
# A: Amount of the ABCA1 mRNA in the presence of the test compound
# B: Amount of the β-actin mRNA in the presence of the test compound
# C: Amount of the ABCA1 mRNA in the presence of DMSO
# D: Amount of the β-actin mRNA in the presence of DMSO
# Increase Rate (%) of ABCA1 mRNA=(A/B)/(C/D)×100
structure (smiles),measurement,value
"O=C(Nc1ccc(-c2ccc(O)cc2)cc1)c1cc([N+](=O)[O-])ccc1Cl [Example 135, N-[4-(4-Hydroxyphenyl)phenyl]-2-(chloro-5-nitrophenyl)carboxamide]",Rate of Increase (%) of ABCA1 mRNA,163.0%
